According to patent publication US20240390490A1, “PHARMACEUTICAL COMPOSITIONS FOR THE TREATMENT OF CANCERS” (Rutgers, The State University of New Jersey, priority 2021, published 2024):

Experiments:
MDA-MB-231 cells [1] = assay: Cell cycle analysis (PI staining); format: cell-based, human; conditions: 100 μM
Procedure: Cell cycle analysis of breast cancer cells was carried out using propidium iodide (PI) staining protocol according to the manufacturer's instructions (Nexcelom Bioscience LLC, Lawrence, MA). […] Then, cells were harvested by trypsinization, centrifuged at 2000 rpm for 5 minutes, washed with PBS (pH 7.4), and fixed in ice cold 100% ethanol for 15 minutes. The cells were spun down and resuspended in 150 μl of PI-staining solution provided with the Cellometer PI Cell Cycle Kit. The PI-stained cells were then subjected to analysis in the Cellometer Vision instrument (Nexcelom Bioscience LLC) and the data was captured on Cellometer Vision CBA software (Nexcelom Bioscience LLC) and analyzed by FCS Express 4 software (Molecule Devices, Corp., Sunnyvale, CA). Differences in fluorescence intensity were used to determine the percentage of cells in each phase of the cell cycle and represented as histograms for control and drug-treated samples.

MDA-MB-231 cells [2] = assay: Clonogenic (colony formation) assay; format: cell-based, human; conditions: 100 μM, 14 days
Procedure: The clonogenic assay was performed as previously described (25). Briefly, cells were suspended in culture media and were seeded into 6-well tissue culture plates at a density of 1,000 cells/well, allowed to adhere overnight, and treated with vehicle alone or a 100 μM concentration of beta-adrenergic and opioidergic drugs alone or in combination. Fresh medium and drugs were changed every 3 or 4 days for 14 days. At the end of the experiment, the cell colonies were stained with 0.5% crystal violet, subjected to image acquisition, and quantified in Adobe Photoshop (Adobe Systems, San Jose, CA). The crystal violet-stained cell colonies were extracted with 10% acetic acid and used for optical density (OD) measurements for determination of colony growth. Drug effects on these cells were determined in duplicate wells in three independent experiments.

[3] = tested on: MDA-MB-231, MDA-MB-468, and T47D cells; assay: Matrigel cell invasion assay; format: cell-based, human; conditions: 100 μM, 48 hours, Matrigel coated membrane
Procedure: The invasive and metastatic potential of cell lines was tested by transmigration through an extracellular matrix (ECM) by a previously described method (26). In brief, the upper chamber of the matrix in 24-well Matrigel invasion chamber plates (BD BioCoat™ Matrigel™ Chamber, BD Biosciences, San Jose, CA) was loaded with 5×10^4 cells in 500 μl of the appropriate medium (cell numbers established by preliminary experiments). After 24 hours, medium containing 1% FBS was used on both the lower and upper surfaces. One day later, the medium of the upper chamber was replaced with 500 μl medium containing 1% FBS without any drug treatment. The medium was replaced with medium containing 10% FBS and 25 ng/ml EGF in the lower chamber. The effect of beta-adrenergic and opioidergic drugs was tested by adding a 100 μM concentration of these drugs alone or in combination or vehicle alone in both lower and upper chambers. After 48 hours of incubation, the noninvasive cells that remained within the inserts were removed with a cotton swab. Cells that traversed through the Matrigel and the polycarbonate filter (8-μm pore size) attached to the lower surface were stained with 0.5% crystal violet for calculating the invasion index. Cells were visualized and photographed as described in the migration assay. The photographs were used to count invasive cells in Adobe Photoshop.

[4] = tested on: MDA-MB-231-cell-derived xenografts; assay: Survival study of nude rats inoculated with MDA-MB-231 cells; format: in vivo, rat; conditions: Kaplan-Meier; control animals about 28 days
Procedure: For the following study and survival study, MDA-MB 231 cells (ATCC) were grown until about 90% confluence just 1 day before injection. On the day of injection, after checking cell viability with trypan blue, MDA-MB 231 cells were diluted in PBS at a final concentration of 1×10^7 cells/rat in 200-μl of PBS-50% Matrigel (BD Biosciences, San Jose, CA) mixture and injected subcutaneously (SC) into the right flank of the rats. […] Tumor shrinkage/growth was measured in animals daily and animal weights were measured every other day. […] Three dimensions of tumor were measured using electronic calipers, and tumor volumes were calculated by the formula L×W^2/2. The mean±SEM of tumor volume was calculated weekly for each experimental group, and the data are expressed as mean absolute tumor volume. After the animals were sacrificed, the subcutaneous tumors were excised intact from the rats to determine the tumor weight in grams and photographed to visualize differences in tumor morphology and compare size. A portion of the excised tumors was snap-frozen by immersion in liquid nitrogen and stored at −80° C. until further use.
The animals were treated with the same drug treatment regimens and euthanized as described previously. […] At the endpoint (prior to the onset of death), the animals were euthanized, and the survival curves were plotted in a Kaplan-Meier survival curve.

Row | SMILES | number of cells in G0/G1 phase (MDA-MB-231 cells [1]) | number of cells in G2/M phase (MDA-MB-231 cells [1]) | number of cells in S phase (MDA-MB-231 cells [1]) | colony formation (MDA-MB-231 cells [2]) | cell invasion [3] | mean life span (survival) [4] [days]
1 | CC1(C)SSC(C)(C)[C@@H](NC(=O)[C@@H](N)Cc2ccc(O)cc2)C(=O)NCC(=O)N[C@@H](Cc2ccccc2)C(=O)N[C@H]1C(=O)O [DPDPE, (D-Pen^2, D-Pen^5)-enkephalin] | reduced | increased | no significant changes | moderate inhibition | decreased cell invasion | 40
2 | O=C1CC[C@@]2(O)[C@H]3Cc4ccc(O)c5c4[C@@]2(CCN3CC2CC2)[C@H]1O5 [NTX, 17-(cyclopropylmethyl)-4,5α-epoxy-3,14-dihydroxymorphinan-6-one] | reduced | increased | no significant changes | moderate inhibition | decreased cell invasion | 45
3 | CC(C)NCC(O)COc1cccc2ccccc12 (stereo not drawn) [PRO, propranolol] | reduced | increased | no significant changes | moderate inhibition | decreased cell invasion | 45
